The source of these data is US20250084056A1, “SUBSTITUTED OXOISOINDOLINYL PIPERIDINE-2,6-DIONE COMPOUNDS” (BRISTOL-MYERS SQUIBB COMPANY, priority 2023, published 2025).

Format in all cases: cell-based
One assay has as its target Cyclin E1 (Homo sapiens, UniProt P24864+Q96SW2). Briefly: Cyclin E1 Cellular Degradation Assay (MSD). Details: endogenous in cells; host or cells: OVCAR3. The settings on record: for DC50 / Dmax: Cyclin E1 cellular degradation; for Dmax: maximum degradation; for Ratio of GSPT1 DC50/Cyclin E1 DC50: selectivity for degradation of Cyclin E1 over GSPT1. The method in brief:
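OVCAR3 cells treated with compound for 24 h at 37 °C, lysed, and cyclin E1 measured by MSD sandwich immunoassay (rabbit capture, mouse detection anti-CCNE1). Reference degrader at […] defined 110% response; DC50 and Dmax derived from response.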

In another assay the test system is Phospho-Rb (Ser807/811). Briefly: Phospho-Retinoblastoma (pRB) Cellular Assay. The following applies: Homo sapiens, OVCAR-3, NIH OVCAR3 cells, 24 hours; for pIC50: concentration giving 50% response; for Emax: maximum response, reference compound at 10 μM = 100%, read-out: pRB Ymax. The method in brief:
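OVCAR3 cells seeded overnight, then dosed with serial dilutions for 24 h at 37° C. Lysed with kit mix plus phosphatase inhibitor, ≥4 h at room temperature, read on EnVision; 100% response set by reference compound at 10 μM, giving IC50 and Ymax.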

In another assay the target is GSPT1 (Homo sapiens, UniProt P15170+Q96SW2). Briefly: GSPT1 Cellular Degradation Assay (DF15-GSPT1-ePL). Details: expressed in transfected cells. The settings on record: DF15-GSPT1-ePL cells, 20 hours. The gist of the method:
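Human DF15 cells co-expressing a GSPT1–ePL fusion were treated with compound in RPMI 1640/10% FBS for 20 h at 37 °C. GSPT1 level was read by enzyme-fragment-complementation luminescence after 60 min with detection reagent. The reference degrader at […] defined 75% response; DC50 and Dmax were reported.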

Usually DC50 stands for the concentration at which degradation of the target reaches its halfway point. The low end stands for degradation at low concentration, the high end for degradation only at high concentration. A word on the Dmax: it is the greatest extent of degradation seen. A word on the pIC50: it is the IC50 on a negative log10 scale, so that one unit is a factor of ten. Read a high pIC50 as a small IC50.

pIC50: −log10 of the molar value.

Sequence of Cyclin E1 (P24864 whole entry): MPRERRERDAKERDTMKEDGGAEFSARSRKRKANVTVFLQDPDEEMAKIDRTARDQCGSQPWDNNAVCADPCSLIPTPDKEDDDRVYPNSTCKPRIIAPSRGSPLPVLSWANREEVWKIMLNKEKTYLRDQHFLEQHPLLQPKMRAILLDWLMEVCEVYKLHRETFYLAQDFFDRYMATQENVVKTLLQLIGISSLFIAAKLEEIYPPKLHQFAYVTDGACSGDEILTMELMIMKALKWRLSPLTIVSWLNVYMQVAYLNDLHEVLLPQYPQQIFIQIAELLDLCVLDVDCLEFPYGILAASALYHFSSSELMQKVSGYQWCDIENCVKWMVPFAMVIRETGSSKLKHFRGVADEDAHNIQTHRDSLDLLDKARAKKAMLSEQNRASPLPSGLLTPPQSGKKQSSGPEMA
Sequence of Cyclin E1 (Q96SW2 whole entry): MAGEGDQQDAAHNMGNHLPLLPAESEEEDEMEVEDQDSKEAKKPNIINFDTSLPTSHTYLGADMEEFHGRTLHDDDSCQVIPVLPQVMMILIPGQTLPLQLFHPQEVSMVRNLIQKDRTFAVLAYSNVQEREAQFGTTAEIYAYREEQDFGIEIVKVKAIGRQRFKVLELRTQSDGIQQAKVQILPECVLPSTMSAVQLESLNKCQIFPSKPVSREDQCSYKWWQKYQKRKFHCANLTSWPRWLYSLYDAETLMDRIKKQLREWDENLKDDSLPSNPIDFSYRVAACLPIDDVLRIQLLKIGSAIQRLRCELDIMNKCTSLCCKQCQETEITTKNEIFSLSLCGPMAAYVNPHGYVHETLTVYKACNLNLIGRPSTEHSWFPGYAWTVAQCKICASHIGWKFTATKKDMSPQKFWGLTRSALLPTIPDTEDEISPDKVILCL
Sequence of Cyclin E1 (Q16531 whole entry partner): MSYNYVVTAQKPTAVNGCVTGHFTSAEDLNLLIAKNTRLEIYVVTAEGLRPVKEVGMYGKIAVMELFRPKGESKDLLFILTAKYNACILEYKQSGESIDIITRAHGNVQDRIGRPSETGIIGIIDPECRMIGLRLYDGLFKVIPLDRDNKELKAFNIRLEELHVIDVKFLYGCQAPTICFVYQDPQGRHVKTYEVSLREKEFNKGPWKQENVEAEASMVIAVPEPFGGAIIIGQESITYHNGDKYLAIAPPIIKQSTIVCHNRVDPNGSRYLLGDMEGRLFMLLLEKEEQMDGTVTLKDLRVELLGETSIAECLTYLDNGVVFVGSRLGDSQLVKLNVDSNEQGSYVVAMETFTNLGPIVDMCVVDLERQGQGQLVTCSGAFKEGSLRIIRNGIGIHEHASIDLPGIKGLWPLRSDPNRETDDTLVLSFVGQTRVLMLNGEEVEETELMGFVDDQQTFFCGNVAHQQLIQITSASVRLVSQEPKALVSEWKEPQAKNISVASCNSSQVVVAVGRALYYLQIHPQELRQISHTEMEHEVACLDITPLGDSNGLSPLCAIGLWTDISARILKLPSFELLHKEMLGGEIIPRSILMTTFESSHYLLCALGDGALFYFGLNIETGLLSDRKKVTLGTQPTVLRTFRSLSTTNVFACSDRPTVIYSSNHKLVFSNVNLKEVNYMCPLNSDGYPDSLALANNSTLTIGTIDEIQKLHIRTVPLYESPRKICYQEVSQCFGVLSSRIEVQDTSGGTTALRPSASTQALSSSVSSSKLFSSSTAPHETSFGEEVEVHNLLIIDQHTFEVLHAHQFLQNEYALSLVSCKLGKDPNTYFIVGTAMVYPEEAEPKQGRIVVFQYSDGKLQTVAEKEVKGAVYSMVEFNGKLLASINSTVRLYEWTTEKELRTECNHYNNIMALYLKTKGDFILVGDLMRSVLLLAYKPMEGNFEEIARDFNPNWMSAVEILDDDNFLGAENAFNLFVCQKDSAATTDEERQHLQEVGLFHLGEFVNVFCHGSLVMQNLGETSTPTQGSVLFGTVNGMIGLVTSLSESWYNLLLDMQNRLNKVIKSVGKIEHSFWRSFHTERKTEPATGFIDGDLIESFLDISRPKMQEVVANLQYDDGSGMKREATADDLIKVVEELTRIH
Sequence of GSPT1 (P15170 whole entry, the tested form may be a part): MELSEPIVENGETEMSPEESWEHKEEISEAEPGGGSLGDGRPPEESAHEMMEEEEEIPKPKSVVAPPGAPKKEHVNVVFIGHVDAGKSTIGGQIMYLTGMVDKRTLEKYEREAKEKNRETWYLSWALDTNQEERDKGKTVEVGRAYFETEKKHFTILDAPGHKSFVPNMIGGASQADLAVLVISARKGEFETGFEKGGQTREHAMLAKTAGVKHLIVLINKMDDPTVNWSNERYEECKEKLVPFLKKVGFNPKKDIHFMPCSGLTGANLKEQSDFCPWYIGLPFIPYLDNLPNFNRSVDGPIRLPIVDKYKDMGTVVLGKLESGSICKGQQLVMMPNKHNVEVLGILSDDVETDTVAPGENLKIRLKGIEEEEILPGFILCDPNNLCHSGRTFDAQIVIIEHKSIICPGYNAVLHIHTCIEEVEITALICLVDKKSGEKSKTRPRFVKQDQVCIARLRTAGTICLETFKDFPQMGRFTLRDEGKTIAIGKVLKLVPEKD
Sequence of GSPT1 (Q96SW2 whole entry, the tested form may be a part): as the sequence (Q96SW2 whole entry) above
Sequence of GSPT1 (Q16531 whole entry partner, the tested form may be a part): as the sequence (Q16531 whole entry partner) above

In the case of `COc1c(COC(=O)Nc2ccc(Oc3ccc(F)cc3F)cc2)ccc2c1C(=O)N(C1CCC(=O)NC1=O)C2` (stereo not drawn) [Example 5, [2-(2,6-dioxopiperidin-3-yl)-4-methoxy-3-oxo-2,3-dihydro-1H-isoindol-5-yl]methyl N-[4-(2,4-difluorophenoxy)phenyl]carbamate], on Cyclin E1, the DC50 came out at 0.299 µM, the Dmax worked out at 118% and the “Ratio of GSPT1 DC50/Cyclin E1 DC50” value is reported as >47. Besides, in the assay with Phospho-Rb (Ser807/811), the pIC50 was 8.52 and the Emax came out at 131%. In addition, on GSPT1, the half-maximal degradation concentration (DC50) was > 14 µM and the Dmax was determined as 33%.
`CC(C)Oc1c(COC(=O)Nc2ccc(Oc3ccc(F)cc3)cc2)ccc2c1C(=O)N(C1CCC(=O)NC1=O)C2` (stereo not drawn) [Example 59, [2-(2,6-dioxopiperidin-3-yl)-3-oxo-4-(propan-2-yloxy)-2,3-dihydro-1H-isoindol-5-yl]methyl N-[4-(4-fluorophenoxy)phenyl]carbamate]: at Cyclin E1, the DC50 was 0.131 µM, the Dmax was 104% and the “Ratio of GSPT1 DC50/Cyclin E1 DC50” value is given as >107. For the same compound, in the assay on Phospho-Rb (Ser807/811), the pIC50 is 6.76 and the Emax was determined as 113%. At GSPT1, the DC50 was > 14 µM and the Dmax was found to be 48%.
For `O=C1CCC(N2Cc3ccc(COC(=O)Nc4ccc(Oc5ccccc5Cl)cc4)c(Oc4ccccc4)c3C2=O)C(=O)N1` (stereo not drawn) [Example 66, [2-(2,6-dioxopiperidin-3-yl)-3-oxo-4-phenoxy-2,3-dihydro-1H-isoindol-5-yl]methyl N-[4-(2-chlorophenoxy)phenyl]carbamate], on Cyclin E1, the DC50 is 0.111 µM, the Dmax came out at 103% and the “Ratio of GSPT1 DC50/Cyclin E1 DC50” value is >126. In the assay on Phospho-Rb (Ser807/811), the negative-log IC50 (pIC50) was 7.26 and the Emax came out at 148%. Also, at GSPT1, the DC50 is > 14 µM and the Dmax amounted to 19%.
With `O=C1CCC(N2Cc3ccc(COC(=O)Nc4ccc(Oc5ccccc5Cl)cc4)c(OC4CCOCC4)c3C2=O)C(=O)N1` (stereo not drawn) [Example 131, [2-(2,6-dioxopiperidin-3-yl)-4-(oxan-4-yloxy)-3-oxo-2,3-dihydro-1H-isoindol-5-yl]methyl N-[4-(2-chlorophenoxy)phenyl]carbamate], at Cyclin E1, the DC50 was determined as 0.031 µM, the Dmax was 102% and the “Ratio of GSPT1 DC50/Cyclin E1 DC50” value is >450. In the assay on Phospho-Rb (Ser807/811), the negative logarithm of the IC50 (pIC50) was 7.55 and the Emax is 129%. Also, on GSPT1, the 50% degradation concentration (DC50) is > 14 µM and the Dmax was 0%.
As for `COc1c(COC(=O)Nc2ccc(Oc3cccc(C)c3)cc2)ccc2c1C(=O)N(C1CCC(=O)NC1=O)C2` (stereo not drawn) [Example 11, [2-(2,6-dioxopiperidin-3-yl)-4-methoxy-3-oxo-2,3-dihydro-1H-isoindol-5-yl]methyl N-[4-(3-methylphenoxy)phenyl]carbamate], on Cyclin E1, the DC50 came to 0.061 µM, the Dmax is 112% and the “Ratio of GSPT1 DC50/Cyclin E1 DC50” value is on record as >228. In the assay with Phospho-Rb (Ser807/811), the negative logarithm of the IC50 (pIC50) is 6.45 and the Emax is 98%. For the same compound, at GSPT1, the DC50 is > 14 µM and the Dmax came to 33%.
As to `O=C1CCC(N2Cc3ccc(COC(=O)Nc4ccc(Oc5ccccc5)cc4)c(Oc4ccccc4)c3C2=O)C(=O)N1` (stereo not drawn) [Example 62, [2-(2,6-dioxopiperidin-3-yl)-3-oxo-4-phenoxy-2,3-dihydro-1H-isoindol-5-yl]methyl N-(4-phenoxyphenyl)carbamate], at Cyclin E1, it took 0.098 µM to reach half-maximal degradation (DC50), the Dmax amounted to 102% and the “Ratio of GSPT1 DC50/Cyclin E1 DC50” value is >143. For the same compound, in the assay with Phospho-Rb (Ser807/811), the negative-log IC50 (pIC50) is 6.17 and the Emax was 94%. For the same compound, on GSPT1, the half-maximal degradation concentration (DC50) was > 14 µM and the Dmax was 33%.
Turning to `CC(C)Oc1c(COC(=O)Nc2ccc(Oc3ccc(F)c(F)c3)cc2F)ccc2c1C(=O)N(C1CCC(=O)NC1=O)C2` (stereo not drawn) [Example 119, [2-(2,6-dioxopiperidin-3-yl)-3-oxo-4-(propan-2-yloxy)-2,3-dihydro-1H-isoindol-5-yl]methyl N-[4-(3,4-difluorophenoxy)-2-fluorophenyl]carbamate], at Cyclin E1, the 50% degradation concentration (DC50) is 0.116 µM, the Dmax came to 107% and the “Ratio of GSPT1 DC50/Cyclin E1 DC50” value is reported as >120. Also, in the assay on Phospho-Rb (Ser807/811), the pIC50 is 7.27 and the Emax came out at 111%. Further, at GSPT1, the DC50 was > 14 µM and the Dmax came out at 10%.
Regarding `CCOc1c(COC(=O)Nc2ccc(Oc3ccc(F)c(F)c3)cc2)ccc2c1C(=O)N(C1CCC(=O)NC1=O)C2` (stereo not drawn) [Example 53, [2-(2,6-dioxopiperidin-3-yl)-4-ethoxy-3-oxo-2,3-dihydro-1H-isoindol-5-yl]methyl N-[4-(3,4-difluorophenoxy)phenyl]carbamate], at Cyclin E1, the DC50 amounted to 0.176 µM, the Dmax worked out at 109% and the “Ratio of GSPT1 DC50/Cyclin E1 DC50” value is >80. Also, in the assay with Phospho-Rb (Ser807/811), the pIC50 is 7.07 and the Emax is 99%. Further, at GSPT1, the DC50 was > 14 µM and the Dmax was determined as 37%.
Regarding `COc1cc(Oc2cc(F)c(F)cc2Cl)ccc1NC(=O)OCc1ccc2c(c1OC)C(=O)N(C1CCC(=O)NC1=O)C2` (stereo not drawn) [Example 108, [2-(2,6-dioxopiperidin-3-yl)-4-methoxy-3-oxo-2,3-dihydro-1H-isoindol-5-yl]methyl N-[4-(2-chloro-4,5-difluorophenoxy)-2-methoxyphenyl]carbamate], on Cyclin E1, the DC50 came out at 0.099 µM, the Dmax is 106% and the “Ratio of GSPT1 DC50/Cyclin E1 DC50” value is recorded as >142. Moreover, in the assay on Phospho-Rb (Ser807/811), the negative-log IC50 (pIC50) is 6.95 and the Emax was found to be 112%. On GSPT1, the DC50 was > 14 µM and the Dmax came out at 24%.
Consider `COc1cc(Oc2ccc(F)c(F)c2)ccc1NC(=O)OCc1ccc2c(c1OC)C(=O)N(C1CCC(=O)NC1=O)C2` (stereo not drawn) [Example 47, [2-(2,6-dioxopiperidin-3-yl)-4-methoxy-3-oxo-2,3-dihydro-1H-isoindol-5-yl]methyl N-[4-(3,4-difluorophenoxy)-2-methoxyphenyl]carbamate], for which, on Cyclin E1, the DC50 was found to be 0.32 µM, the Dmax was determined as 101% and the “Ratio of GSPT1 DC50/Cyclin E1 DC50” value is reported as >44. For the same compound, in the assay with Phospho-Rb (Ser807/811), the negative logarithm of the IC50 (pIC50) was 6.44 and the Emax was found to be 107%. Besides, on GSPT1, the DC50 was > 14 µM and the Dmax was 20%.
Consider `COc1cc(Oc2ccc(F)cc2OC)ccc1NC(=O)OCc1ccc2c(c1OC)C(=O)N(C1CCC(=O)NC1=O)C2` (stereo not drawn) [Example 50, [2-(2,6-dioxopiperidin-3-yl)-4-methoxy-3-oxo-2,3-dihydro-1H-isoindol-5-yl]methyl N-[4-(4-fluoro-2-methoxyphenoxy)-2-methoxyphenyl]carbamate], for which, at Cyclin E1, the DC50 was 0.463 µM, the Dmax came out at 77% and the “Ratio of GSPT1 DC50/Cyclin E1 DC50” value is >30. In the assay on Phospho-Rb (Ser807/811), the negative logarithm of the IC50 (pIC50) was 5.68 and the Emax is 77%. Also, on GSPT1, the DC50 is > 14 µM and the Dmax came to 25%.
For `O=C1CCC(N2Cc3ccc(COC(=O)Nc4ccc(Oc5ccc(F)c(F)c5)cc4)c(O[C@H]4CC[C@H](O)CC4)c3C2=O)C(=O)N1` (stereo partly drawn) [Example 166, [2-(2,6-dioxopiperidin-3-yl)-3-oxo-4-{[(1R,4R)-4-hydroxycyclohexyl]oxy}-2,3-dihydro-1H-isoindol-5-yl]methyl N-[4-(3,4-difluorophenoxy)phenyl]carbamate], at Cyclin E1, half-maximal degradation (DC50) was put at 0.087 µM, the Dmax was determined as 108% and the “Ratio of GSPT1 DC50/Cyclin E1 DC50” value was >160. In the assay on Phospho-Rb (Ser807/811), the negative logarithm of the IC50 (pIC50) was 7.02 and the Emax was 134%. Further, at GSPT1, the DC50 is > 14 µM and the Dmax stood at 27%.
Regarding `COc1c(COC(=O)Nc2ccc(Oc3cccc(F)c3)cc2)ccc2c1C(=O)N(C1CCC(=O)NC1=O)C2` (stereo not drawn) [Example 4, [2-(2,6-dioxopiperidin-3-yl)-4-methoxy-3-oxo-2,3-dihydro-1H-isoindol-5-yl]methyl N-[4-(3-fluorophenoxy)phenyl]carbamate], on Cyclin E1, the DC50 amounted to 0.039 µM, the Dmax is 108% and the “Ratio of GSPT1 DC50/Cyclin E1 DC50” value was >355. Also, in the assay with Phospho-Rb (Ser807/811), the negative logarithm of the IC50 (pIC50) was 7.05 and the Emax worked out at 109%. In addition, at GSPT1, the 50% degradation concentration (DC50) is > 14 µM and the Dmax is 35%.
With `COc1c(COC(=O)Nc2ccc(Oc3ccc(F)cc3C)cc2)ccc2c1C(=O)N(C1CCC(=O)NC1=O)C2` (stereo not drawn) [Example 81, [2-(2,6-dioxopiperidin-3-yl)-4-methoxy-3-oxo-2,3-dihydro-1H-isoindol-5-yl]methyl N-[4-(4-fluoro-2-methylphenoxy)phenyl]carbamate], at Cyclin E1, the 50% degradation concentration (DC50) came out at 0.092 µM, the Dmax was 110% and the “Ratio of GSPT1 DC50/Cyclin E1 DC50” value was >152. For the same compound, in the assay with Phospho-Rb (Ser807/811), the negative logarithm of the IC50 (pIC50) is 7.19 and the Emax worked out at 103%. On GSPT1, the half-maximal degradation concentration (DC50) is > 14 µM and the Dmax was 37%.
Consider `O=C1CCC(N2Cc3ccc(COC(=O)Nc4ccc(Oc5ccc(F)c(F)c5)cc4)c(OC4CCC4)c3C2=O)C(=O)N1` (stereo not drawn) [Example 126, [4-cyclobutoxy-2-(2,6-dioxopiperidin-3-yl)-3-oxo-2,3-dihydro-1H-isoindol-5-yl]methyl N-[4-(3,4-difluorophenoxy)phenyl]carbamate], for which, at Cyclin E1, the DC50 was 0.14 µM, the Dmax was determined as 107% and the “Ratio of GSPT1 DC50/Cyclin E1 DC50” value is given as >100. Also, in the assay on Phospho-Rb (Ser807/811), the negative-log IC50 (pIC50) was 6.93 and the Emax is 129%. Besides, on GSPT1, the DC50 is > 14 µM and the Dmax was 9%.
